Results taken from PMC12380353, “MK-8527 is a novel inhibitor of HIV-1 reverse transcriptase translocation with potential for extended-duration dosing” (PLOS Biology, 2025).

What was measured:
HIV-1 [1] = assay: Multicycle antiviral assay in MT4-GFP cells; format: cell-based; details: 10% NHS; for IC50: Human immunodeficiency virus 1, WT HIV-1, multicycle assay
Procedure: Compounds were evaluated for their ability to prevent HIV-1 infection in MT4-GFP cells as described in Diamond, and colleagues. HIV-1 replication was monitored using the MT4-gag-GFP clone D3, and MT4 cells with a GFP reporter gene, the expression of which is dependent on the HIV-1 expressed proteins tat and rev. […] Proviral variants used for these studies were generated by site-directed mutagenesis in the WT R8 proviral plasmid. Virus was produced by transfection in 293T cells.
Briefly, MT4-GFP cells were cultured overnight with the appropriate HIV-1 variant at an approximate multiplicity of infection of 0.01. After approximately 19 h of infection, the cells were washed and resuspended in assay media containing 10% normal human serum (NHS) before being added to 384-well compound plates containing 10-point serial 3-fold dilutions of compound. Controls included no inhibitor (dimethyl sulfoxide [DMSO] only) and a combination of 3 antiviral agents, efavirenz, indinavir, and an integrase strand transfer inhibitor, L-002254051, at final concentrations of 4 µM each. The infected or treated cells were cultured at 37 °C, 5% CO2, and 90% humidity until evaluation of infection was conducted at approximately 48 and 72 h post-infection by counting the number of GFP cells in each well using an Acumen eX3 scanner (SPT Labtech; Melbourn, UK). The reproductive ratio, R, was calculated by dividing the number of infected cells at 72 h by the number at 48 h post-infection. The percentage inhibition caused by a test compound was calculated by the following formula:
inhibition = [1−(Rtest compound − Rpositive control)]/(RDMSO only − Rpositive control) × 100%\]
The dose–response curves of each test compound were plotted as percentage inhibition versus the test concentration.

HIV-1 [2] = assay: Single-cycle antiviral assay in PBMCs; format: cell-based; details: for IC50: Human immunodeficiency virus 1, PBMC, read-out: PBMC IC50, HIV-1, single-cycle assay, human PBMCs, 10% NHS
Procedure: To evaluate the ability of inhibitors to prevent HIV-1 infection in primary cells, human PBMCs obtained from Biological Specialty Corporation (Colmar, PA, USA) were used to assess antiviral activity. The proviral variants used for these studies were generated by site-directed mutagenesis in a proviral vector derived from NL43 [52] that encodes GFP (pNLG1-P2A-GFP). Virus was produced by transfection in 293T cells.
PBMCs were activated with phytohemagglutinin (PHA) at 5 μg/mL in Roswell Park Memorial Institute (RPMI) 1640 medium containing 10% heat-inactivated fetal bovine serum (FBS) for 2–3 days. Compound plates were prepared by dispensing compounds dissolved in DMSO into 384-well poly-d-lysine-coated plates (0.2 μL per well) using an Echo acoustic dispenser (Labcyte; San Jose, CA, USA). Each compound was tested in a 10-point serial 3-fold dilution (typical final concentrations: 5,000 to 0.1 nM). Controls included no inhibitor (DMSO only) and a combination of 3 antiviral agents, efavirenz, indinavir, and the integrase strand transfer inhibitor, L-002254051, at final concentrations of 4 μM each. PHA-activated human PBMCs were washed and resuspended in RPMI 1640 containing 10% NHS and 30 units per mL of interleukin-2 (IL-2) at 6 × 10^5 cells per mL. PBMCs were added to the compound plates and cultured for 24 h at 37 °C, 5% CO2, and 90% humidity. The appropriate HIV-1 variant was added to the PBMCs and cultured at 37 °C, 5% CO2, and 90% humidity for an additional 24 h.
HIV-1–infected cells were quantified by counting the number of GFP cells in each well using an Acumen eX3 scanner (SPT Labtech; Melbourn, UK).

[3] = CellTiter-Glo (CTG) cytotoxicity in MT4-GFP cells; details: human

With `C#C[C@]1(CO)O[C@@H](n2cnc3c(N)nc(Cl)nc32)C[C@@H]1O` [Compound 1, (2R,3S,5R)-5-(6-amino-2-chloro-9H-purin-9-yl)-2-ethynyl-2-(hydroxymethyl)-tetrahydrofuran-3-ol] as the compound, how does the IC50 (HIV-1 [1]) read?
Its IC50 is 0.0027 µM.

What about the IC50 (HIV-1 [2]) of the same compound?
The IC50 was 0.0004 µM.

And the CC50 [3]?
The CC50 was greater than 42 µM.

For `C#C[C@]1(CO)O[C@@H](n2cnc3c(N)nc(C)nc32)C[C@@H]1O` [Compound 2, (2R,3S,5R)-5-(6-amino-2-methyl-9H-purin-9-yl)-2-ethynyl-2-(hydroxymethyl)-tetrahydrofuran-3-ol], which IC50 (HIV-1 [1]) is on record?
The IC50 was 0.109 µM.

And the IC50 (HIV-1 [2])?
Its IC50 is 0.0359 µM.

And the CC50 [3]?
The CC50 was greater than 42 µM.

With `C#C[C@]1(CO)O[C@@H](n2cnc3c(N)nc(C(F)(F)F)nc32)C[C@@H]1O` [Compound 3, (2R,3S,5R)-5-(6-amino-2-(trifluoromethyl)-9H-purin-9-yl)-2-ethynyl-2-(hydroxymethyl)tetrahydrofuran-3-ol] as the compound, how does the IC50 (HIV-1 [1]) read?
Its IC50 is greater than 42 µM.

What about the IC50 (HIV-1 [2]) of the same compound?
Its IC50 is greater than 11.9 µM.

And the CC50 [3]?
Its CC50 is greater than 42 µM.

With `C#C[C@]1(CO)O[C@@H](n2cnc3c(NC4CC4)nc(F)nc32)C[C@@H]1O` [Compound 4, (2R,3S,5R)-5-(6-(cyclopropylamino)-2-fluoro-9H-purin-9-yl)-2-ethynyl-2-(hydroxymethyl)tetrahydrofuran-3-ol] as the compound, how does the IC50 (HIV-1 [1]) read?
Its IC50 is 4.3 µM.

And the IC50 (HIV-1 [2])?
Its IC50 is 3.29 µM.

And the CC50 [3]?
Its CC50 is greater than 42 µM.

What does the source list for `C#C[C@]1(CO)O[C@@H](n2ccc3c(N)ncnc32)C[C@@H]1O` [Compound 5, (2R,3S,5R)-5-(4-amino-7H-pyrrolo[2,3-d]pyrimidin-7-yl)-2-ethynyl-2-(hydroxymethyl)tetrahydrofuran-3-ol]?
IC50 (HIV-1 [1]): 0.0019 µM; IC50 (HIV-1 [2]): 0.0009 µM; CC50 [3]: 30.8 µM

Which IC50 (HIV-1 [1]) does the source give for `C#C[C@]1(CO)O[C@@H](n2c(C)cc3c(N)ncnc32)C[C@@H]1O` [Compound 6, (2R,3S,5R)-5-(4-amino-6-methyl-7H-pyrrolo[2,3-d]pyrimidin-7-yl)-2-ethynyl-2-(hydroxymethyl)tetrahydrofuran-3-ol] here?
The IC50 was greater than 2 µM.

And the IC50 (HIV-1 [2])?
The IC50 was greater than 2 µM.

And the CC50 [3]?
Its CC50 is greater than 42 µM.

What does the source list for `C#C[C@]1(CO)O[C@@H](n2cc(C)c3c(N)ncnc32)C[C@@H]1O` [Compound 7, (2R,3S,5R)-5-(4-amino-5-methyl-7H-pyrrolo[2,3-d]pyrimidin-7-yl)-2-ethynyl-2-(hydroxymethyl)tetrahydrofuran-3-ol]?
IC50 (HIV-1 [1]): 1.68 µM; IC50 (HIV-1 [2]): 0.682 µM; CC50 [3]: > 42 µM

What does the source list for `C#C[C@]1(CO)O[C@@H](n2cc(-c3ccn[nH]3)c3c(N)ncnc32)C[C@@H]1O` [Compound 10, (2R,3S,5R)-5-(4-amino-5-(1H-pyrazol-5-yl)-7H-pyrrolo[2,3-d]pyrimidin-7-yl)-2-ethynyl-2-(hydroxymethyl)tetrahydrofuran-3-ol]?
IC50 (HIV-1 [1]): 1.59 µM; IC50 (HIV-1 [2]): 0.907 µM; CC50 [3]: > 42 µM

Which results are given for `C#C[C@]1(CO)O[C@@H](n2ccc3c(N)nc(F)nc32)C[C@@H]1O` [Compound 11, (2R,3S,5R)-5-(4-amino-2-fluoro-7H-pyrrolo[2,3-d]pyrimidin-7-yl)-2-ethynyl-2-(hydroxymethyl)tetrahydrofuran-3-ol]?
IC50 (HIV-1 [1]): 0.0168 µM; IC50 (HIV-1 [2]): 0.0105 µM; CC50 [3]: > 42 µM

Which IC50 (HIV-1 [1]) does the source give for `C#C[C@]1(CO)O[C@@H](n2cc(F)c3c(N)nc(Cl)nc32)C[C@@H]1O` [Compound 13, (2R,3S,5R)-5-(4-amino-2-chloro-5-fluoro-7H-pyrrolo[2,3-d]pyrimidin-7-yl)-2-ethynyl-2-(hydroxymethyl)tetrahydrofuran-3-ol] here?
Its IC50 is 0.0024 µM.

What about the “MT4-GFP IC50” value (HIV-1 [1]; WT HIV-1, multicycle assay) of the same compound?
Its value is “single-digit nanomolar potency”.

And the “PBMC IC50” value (HIV-1 [2]; HIV-1, single-cycle assay, human PBMCs, 10% NHS)?
The value was “subnanomolar potency”.

And the IC50 (HIV-1 [2])?
The IC50 was 0.0002 µM.

And the CC50 [3]?
Its CC50 is greater than 42 µM.

With `C#C[C@]1(CO)O[C@@H](n2ccc3c(N)nc(N)nc32)C[C@@H]1O` [Compound 14, (2R,3S,5R)-5-(2,4-diamino-7H-pyrrolo[2,3-d]pyrimidin-7-yl)-2-ethynyl-2-(hydroxymethyl)tetrahydrofuran-3-ol] as the compound, how does the IC50 (HIV-1 [1]) read?
The IC50 was 0.277 µM.

And the IC50 (HIV-1 [2])?
Its IC50 is 0.257 µM.

What about the CC50 [3] of the same compound?
The CC50 was greater than 42 µM.
